Test [1] has as its target T1, LecA (PA-IL) (Pseudomonas aeruginosa, UniProt Q05097). Kind of test: isothermal titration calorimetry; CPMG NMR competition with raffinose. The format is binding. On the technique in general: In ITC the heat of successive injections is recorded.
The target in test [2] is T1, LecA (PA-IL). Briefly: isothermal titration calorimetry; 1D relaxation-edited (CPMG) NMR with galactose competition. It counts as binding.

T1 sequence (Q05097 2-122): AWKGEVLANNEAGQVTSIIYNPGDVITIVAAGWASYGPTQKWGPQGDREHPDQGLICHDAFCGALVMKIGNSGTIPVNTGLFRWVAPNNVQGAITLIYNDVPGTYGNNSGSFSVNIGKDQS

`OC[C@H]1OC(O)[C@H](O)[C@@H](O)[C@H]1O` (stereo partly drawn) [D-galactose] had a dissociation constant (Kd) in test [1] of 47 µM. This counts as double-digit micromolar. Molecule `OC[C@H]1O[C@H](OC[C@H]2O[C@H](O[C@]3(CO)O[C@H](CO)[C@@H](O)[C@@H]3O)[C@H](O)[C@@H](O)[C@@H]2O)[C@H](O)[C@@H](O)[C@H]1O` [raffinose] registered a Kd in test [2] of 32 µM.

For orientation: Kd means the equilibrium constant for the complex coming apart. Higher therefore signals lower affinity.

These data come from publication PMC4855137, “Raffinose, a plant galactoside, inhibits Pseudomonas aeruginosa biofilm formation via binding to LecA and decreasing cellular cyclic diguanylate levels” (Scientific Reports, 2016).
